The results in this text go back to patent publication US8957022B2, “Multimeric tie 2 agonists and uses thereof in stimulating angiogenesis” (Sunnybrook Health Sciences Centre, priority 2006, dated 2015).

Where no end group is shown, it is not given here. Side-chain parts run from the residue outwards. The star is where a group is joined. Biotin = O=C1N[C@H]2[C@H](CS[C@H]2CCCCC(=O)*)N1; PEO = not defined here

The subject of one assay is CD1 mice. The experiment in a line: Matrigel plug angiogenesis assay. The class given is in vivo, mouse. The protocol:
To further examine the in vivo angiogenic potential of Vasculotide, a Matrigel assay was performed. More specifically, growth factor reduced Matrigel (BD Biosciences) was impregnated with either clustered Vasculotide or one of several different control factors. These Matrigel samples were injected subcutaneously into the flank region of 3 month old CD1 mice. 14 days post implantation and immediately prior to sacrifice, FITC lectin (100 μg) was injected IV and allowed to circulate for 10 minutes, to facilitate vessel identification and quantification. Plugs were surgically resected and fixed in 4% paraformaldehyde (PFA) for 16 h. Images of vascular topology were taken using a Zeiss dissecting microscope at 4× magnification. Upon fixing, all plugs were whole mount stained with anti-Sma1-Cy3. Plugs were analyzed on a Zeiss Axiovert 100 M confocal microscope (Carl Zeiss) for three dimensional image reconstruction and photos were processed using LSM Image Browser and Adobe Photoshop 7.0. Morphometric quantification of vessel characteristics was performed by skeletonizing confocal image projections with Image Processing Tool Kit 5.0 (IPTK 5.0). Student's t test was used to test the statistical significance with a 95% confidence interval. All experiments were performed with three replicates each, with at least 5 random image stacks.
To more fully address and assign quantitative vessel parameters to the different treatment groups, the plugs were fixed and interrogated with laser confocal microscopy analysis combined with post processing image analysis (Image Processing Tool Kit 5.0, Reindeer Graphics, N.C.). Vessel parameters, including length, number and branch points (nodes) were quantified on at least six representative fields. Statistical analysis was performed by way of unpaired Student's t test. Bar graphs of the number of vessels, vessel length and number of nodes, for each treatment group, are shown in FIGS. 3A, 3B and 3C, respectively. It is noted that poor perfusion of FITC-lecithin into mice harboring 20 nM clustered Vasculotide plus VEGF plugs prevented statistical analysis, therefore bars are the mean of two separate fields. All other bars shown represent mean+/−SD.
Ang 1 has been reported to potentiate the recruitment of myogenic support cells (Suri, C. et al. (1996) Cell 87:1171-1180) and inhibit VEGF induced vascular permeability through mechanisms that are not well understood (Thurston, G. et al. (2000) Nat. Med. 6:460-463). To determine if Vasculotide, like Ang 1, was capable of initiating pericyte recruitment, whole mount immunofluorescence was performed against smooth muscle actin 1 (Sma1). […] Sma 1 staining was tightly associated with the exterior of the vessels and was enriched on larger vessels.

Assay [1] relates to HUVEC. The experiment in a line: Serum withdrawal-induced cell death, Cell Death ELISA. The class given is cell-based, human. The conditions noted are these: F12 plus 0.1% FBS, 16 hours; clustered Vasculotide at 500 pM (p=0.002) vs non-treated cells. The protocol: Based on the fact that clustered Vasculotide strongly activates the anti apoptotic protein AKT (see Example 3), the ability of Vasculotide to protect ECs from serum withdrawal-induced death was examined. To do so, HUVEC were maintained in F12 media plus 0.1% FBS for 16 hours in the presence of various concentrations of unclustered or clustered Vasculotide, followed by analysis of cell apoptosis via cell death ELISA. Analysis of apoptosis was performed using Cell Death ELISA Plus (Roche) according to manufacturers' specifications. The results are shown in FIG. 2A, in which values were normalized to basal levels of cell death for HUVECs maintained in full 10% FBS, growth factor supplemented F12 media. The results shown represent the mean of three replicates plus or minus 1 SD. Student's T-test was used for statistical analysis with P value indicated.
For orientation: An ELISA detects its analyte on a solid surface through an enzyme-linked reagent.

A further assay has as its target Tie 2 (Homo sapiens, UniProt Q02763). In words: Tie 2 activation (pY992 Tie 2 immunoblot) in HUVEC. Type of assay: cell-based. As to conditions: avidin alone and unclustered Vasculotide. Details: downstream signalling pathways in human umbilical vein endothelial cells (HUVEC) (Cambrex, N.J.); host or cells: HUVEC, passage 3-9. The protocol:
Having established that Vasculotide was able to bind Tie 2 (see Example 2), the ability of Vasculotide, when clustered with avidin in a 4:1 ratio (Vasculotide:avidin), to activate the Tie 2 receptor was tested by examining several well established downstream signalling pathways in human umbilical vein endothelial cells (HUVEC) (Cambrex, N.J.). Such signalling pathways are described in, for example, Kim, I. et al. (2000) Circ. Res. 9:952-959; Fujikawa, K. et al. (1999) Exp. Cell. Res. 2:663-672; Babaei, S. et al. (2003) Am. J. Pathol. 6:1927-1936.
HUVEC were grown on 6-well or 10 cm plates (Nunc) coated with gelatin (Sigma). HUVEC were cultured in F12 growth medium containing 10% fetal bovine serum (FBS), 0.1 mg/ml heparin sulphate, 1× penicillin, 1× streptomycin, 1× glutamine, VEGF 10 ng/ml, EGF 10 ng/ml, bFGF 5 ng/ml. All HUVEC were used between passage 3-9.
(§1) HUVEC were stimulated with one of either Ang 1 (R&D Systems), Vasculotide, avidin or clustered Vasculotide (preclustered with a 4:1 molar ratio of peptide:avidin in PBS for 2 hours at 4° C.) at various doses. Stimulations with Vasculotide were performed in full serum containing growth media for 15 minutes unless otherwise indicated. Cell lysate preparations and immunoblot analysis were performed by standard methods. Antibodies used for immunoblotting (in this and/or subsequent Examples) were monoclonal anti Tie 2 (Pharminogen), polyclonal anti pY992 Tie 2, (Cell Signaling Technology), polyclonal anti MAPK (Cell Signaling Technology), monoclonal anti phospho MAPK (Cell Signaling Technology), polyclonal anti AKT (Cell Signaling Technology), polyclonal anti pS473 AKT (Cell Signaling Technology), monoclonal anti pS1177 eNOS (BD Biosciences), polyclonal anti pY397 FAK (Biosource), polyclonal anti FAK (Santa Cruz), polyclonal anti smooth muscle actin-Cy3 direct conjugate (Dako), polyclonal anti PECAM (Pharminogen) and polyclonal anti smooth muscle actin (Sigma).
To examine Tie 2 activation kinetics, HUVEC were stimulated with native Ang 1 or clustered Vasculotide for various times. Stimulation was performed in 10% FBS. […] Overall, activation of the receptor by either Ang 1 or clustered Vasculotide followed a very similar time course with phosphorylation returning to almost basal levels sometime after 2 hours.
A general note: A western blot detects proteins with antibodies after separation by electrophoresis.

The test system of assay [2] is B6.Cg-m(+/+)Lepr(db)/J (db/db) mice. In words: Excisional wound healing in diabetic mice, topical application. As to conditions: bFGF 10 μg/ml. The class given is in vivo, mouse. The protocol: Pathogen free, nine week old B6.Cg-m(+/+)Lepr(db)/J (db/db) mice were purchased from Jackson Laboratories. Circular, full excisional, 6 mm diameter wounds were made, according to animal committee approval guidelines, equal distant apart on the dorsal side of the mice. Various factors were suspended in sterile Intrasite Topical Gel (Smith and Nephew) at noted concentrations. Treatments were as follows: Vehicle n=8, bFGF (10 μg/ml) n=8, clustered Vasculotide (20 nM) n=4, clustered Vasculotide (5 nM) n=4. Preparations were applied at day 0 (time of wounding), day 2, 4 and 6. Standardized images were taken on days 0, 2, 4, 6 and 7 using a Canon EOS digital Rebel camera. Image J (NIH) was used to manually outline wound perimeter from which total pixel counts (wound area) were determined. Mice were sacrificed on day 7 and full wound beds including margin were excised and fixed in 4% PFA. Wounds were cut in half at the widest point and each half was prepared for either paraffin or frozen sections. Wax sections were processed according to standard protocols for H&E and Masson's Trichrome stain. Images were captured using a Leica DMLS compound light microscope and Pixel Link camera at 5× and 20×. Student's t test was used to test the statistical significance.
For histological scoring, sections were fixed in 4% paraformaldehyde, embedded in paraffin and sectioned and stained with H & E and Masson's trichrome. Sections were evaluated by a pathologist for re-epithelialization, granulation tissue formation, and inflammation, with criteria used for scoring skin as follows:
• 0—none • 1—minimal (0-20% regrowth from wound margins) • 2—mild (25% to 50% regrowth) • 3—moderate (>50% regrowth, up to 100% but not >2 cells thick along length) • 4—complete regrowth (epithelium>1 cell thick along length, keratinized) Granulation Tissue (GT) and Neovascularization: • 0—none • 1—minimal (1-3 small, isolated islands of GT at margins of defect) • 2—mild (multifocal, patchy islands of GT underlying tissue defect, <10 new blood vessels) • 3—moderate (locally extensive bands of GT underlying length of defect) • 4—marked (dense bands of GT at margins and underlying length of defect with collagen fibrils and numerous blood vessels) Inflammation (within Defect): • 0—none • 1—minimal (a few scattered neutrophils at margins of defect) • 2—mild (multifocal aggregates of up to 5 neutrophils underlying defect) • 3—moderate (multifocal aggregates of up to 10 neutrophils and occasional macrophages, minimal to mild edema) • 4—marked (locally extensive, dense neutrophilic infiltrates with lesser numbers of macrophages, mild-moderate edema)

The test system of assay [3] is HUVEC. In words: Modified Boyden chamber migration assay. The conditions noted are these: as in Example 4. Type of assay: cell-based, human.
Experimental: To test if Vasculotide, like Ang 1, was capable of promoting these processes, the effect of Vasculotide on EC migration was tested using a modified Boyden chamber assay. HUVEC were seeded at a density of 8.4×10^4 cells in 500 μl of F12 growth media plus 0.1% FBS in the upper chamber of an 8 μm pore size modified Boyden chamber (Falcon). 500 μl of F12 media plus 0.1% FBS plus various growth factors (Ang 1 (R& D Systems), unclustered or clustered Vasculotide, VEGF (R&D Systems) or clustered Vasculotide in combination with VEGF) or controls were placed in the bottom chamber. Cells were allowed to migrate for 4 hours in a 37° C., 5% CO2 incubator. Nonmigrating cells were scraped off, and filters were fixed in 100% methanol for 5 minutes, stained with Harris' Hematoxylin (BDH) for 10 minutes and washed twice with tap water for 3 minutes each. Filters were then mounted using Aquapolymount mounting medium. Cells that had migrated more than 50% of the way through the pore were scored as positive for migration.
Student's t test was used to test the statistical significance with a 95% confidence interval. Stimulations were performed in triplicate and migrating cells in 6 microscopic fields per replicate were counted.
For the next assay, the system named is MMP2. In words: Gelatin zymography of HUVEC conditioned media. The conditions noted are these: as in Example 4. The class given is cell-based, human. The protocol: In vivo, ECs can not migrate until they secrete enzymes necessary to break down components of the extra cellular matrix. Gelatin zymography was employed to determine if clustered Vasculotide promoted secretion of MMP2. To perform the zymography, HUVEC were cultured in F12 media plus 0.1% FBS and stimulated for 16 h with VEGF, unclustered Vasculotide or clustered Vasculotide at various concentrations. Conditioned media was centrifuged to remove cellular debris and prepared for gel electrophoresis using non-reducing conditions. Gels were washed twice for 30 minutes in 2.5% Triton X-100 to remove sodium dodecyl sulfate and were then incubated in substrate buffer (50 mmol/L Tris-HCl, pH 8.8, 5 mmol/L CaCl2) for 16 hours at 37° C. Gels were then stained with 0.5% Coomassie blue in 30% methanol/10% acetic acid for 2 hours at room temperature and destained in 50% methanol/10% acetic acid. The presence of metalloproteinases was indicated by unstained proteolytic zones in the gel.

The test system of assay [4] is focal adhesion kinase (FAK). In words: FAK activation in HUVEC (pY397 FAK immunoblot). The class given is cell-based, human. As to conditions: time course. The protocol: as §1
To examine Tie 2 activation kinetics, HUVEC were stimulated with native Ang 1 or clustered Vasculotide for various times. Stimulation was performed in 10% FBS. […]

Tie 2, sequence (Q02763 23-1124): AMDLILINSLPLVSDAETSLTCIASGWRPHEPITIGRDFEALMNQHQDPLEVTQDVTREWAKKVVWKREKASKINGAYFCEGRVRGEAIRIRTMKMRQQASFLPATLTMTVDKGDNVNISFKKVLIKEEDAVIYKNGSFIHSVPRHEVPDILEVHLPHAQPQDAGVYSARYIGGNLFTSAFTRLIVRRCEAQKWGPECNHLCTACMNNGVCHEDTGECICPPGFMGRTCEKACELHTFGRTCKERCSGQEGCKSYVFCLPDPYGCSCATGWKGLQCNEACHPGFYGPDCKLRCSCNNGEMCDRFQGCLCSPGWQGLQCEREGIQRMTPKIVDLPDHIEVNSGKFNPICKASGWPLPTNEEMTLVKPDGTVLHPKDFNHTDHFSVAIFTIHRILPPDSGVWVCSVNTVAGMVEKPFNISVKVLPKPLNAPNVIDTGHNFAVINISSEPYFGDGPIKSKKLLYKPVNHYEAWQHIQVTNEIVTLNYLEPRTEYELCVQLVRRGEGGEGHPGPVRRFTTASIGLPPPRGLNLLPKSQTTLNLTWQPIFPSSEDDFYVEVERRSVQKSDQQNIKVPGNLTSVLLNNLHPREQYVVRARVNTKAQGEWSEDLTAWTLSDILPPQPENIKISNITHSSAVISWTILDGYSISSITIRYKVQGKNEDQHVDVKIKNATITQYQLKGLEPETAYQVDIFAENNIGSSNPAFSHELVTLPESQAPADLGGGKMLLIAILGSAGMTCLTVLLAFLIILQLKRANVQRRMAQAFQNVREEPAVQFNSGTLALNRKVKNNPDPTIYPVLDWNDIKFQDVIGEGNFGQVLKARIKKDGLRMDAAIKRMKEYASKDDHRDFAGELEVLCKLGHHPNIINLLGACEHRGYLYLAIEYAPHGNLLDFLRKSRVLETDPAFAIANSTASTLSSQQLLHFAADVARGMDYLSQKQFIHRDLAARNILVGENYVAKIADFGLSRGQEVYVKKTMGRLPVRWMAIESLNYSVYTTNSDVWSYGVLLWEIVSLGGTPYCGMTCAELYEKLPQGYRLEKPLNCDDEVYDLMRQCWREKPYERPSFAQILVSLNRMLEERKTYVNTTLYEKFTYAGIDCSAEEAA

For the molecule VEGF [reference compound], the “Nature of vessels (arborization, tortuosity)” value in the assay on CD1 mice (14 days post implantation) is recorded as “highly tortuous”. Also, the “Vessel growth in plugs (confocal analysis)” value with CD1 mice (14 days post implantation, FITC lectin) was “robust induction of angiogenesis”. Besides, in the assay on CD1 mice (14 days post implantation, subcutaneous), the “Angiogenic response in the membranous capsule surrounding the plugs” value was “distinct and robust angiogenic response”. The “Smooth muscle actin 1 (Sma1) staining, pericyte recruitment” value in the assay with CD1 mice (whole mount immunofluorescence) is listed as “relative absence of Sma1 positive staining cells”.
In the case of “avidin: tetramer agent with four binding sites for biotin, tested alone as control [reference compound]”, the “Apoptosis / survival after serum withdrawal” value in the assay with HUVEC [1] is on record as “no effect on survival”. In addition, the “Tie 2 phosphorylation without preclustering” value in the assay with Tie 2 was “only when preclustered with avidin was Vasculotide able to stimulate Tie 2 phosphorylation”.
Take “bFGF: growth factor used as comparator at 10 μg/ml in the wound gel [reference compound]”: in assay [2], the “Wound closure by day 7” value was “statistically indistinguishable from clustered Vasculotide at 20 nM or 5 nM”. Besides, the “Histological differences between vehicle and bFGF” value in assay [2] (p=0.0486) is given as “existed only at the level of inflammation”.
Turning to “tetrameric GA3-containing compound: GA3 peptide (SEQ ID NO: 4) conjugated to PEO-maleimide-biotin, clustered with avidin in a 4:1 ratio (C([maleimide-PEO-Biotin])WTIIQRREDGSVDFQRTWKEYK; reading uncertain; also: avidin tetramer, 4 peptides per avidin, printed as Cys-Trp-Thr-Ile-Ile-Gln-Arg-Arg-Glu-Asp-Gly-Ser-Val-Asp-Phe-Gln-Arg-Thr-Trp-Lys-Glu-Tyr-Lys)”, the “Endothelial cell migration (GA3 tetramer)” value in the assay on HUVEC [3] is “effective in promoting endothelial cell migration”. For the same molecule, the “MMP2 release (GA3 tetramer)” value in the assay on MMP2 was “effective in promoting MMP2 release”.

B1: Ang 1: angiopoietin 1, protein growth factor ligand for Tie 2 (R&D Systems) (protein, UniProt Q15389 16-498, looked up)
Angiopoietin-1: HIGCSNQRRSPENSGRRYNRIQHGQCAYTFILPEHDGNCRESTTDQYNTNALQRDAPHVEPDFSSQKLQHLEHVMENYTQWLQKLENYIVENMKSEMAQIQQNAVQNHTATMLEIGTSLLSQTAEQTRKLTDVETQVLNQTSRLEIQLLENSLSTYKLEKQLLQQTNEILKIHEKNSLLEHKILEMEGKHKEELDTLKEEKENLQGLVTRQTYIIQELEKQLNRATTNNSVLQKQQLELMDTVHNLVNLCTKEGVLLKGGKREEEKPFRDCADVYQAGFNKSGIYTIYINNMPEPKKVFCNMDVNGGGWTVIQHREDGSLDFQRGWKEYKMGFGNPSGEYWLGNEFIFAITSQRQYMLRIELMDWEGNRAYSQYDRFHIGNEKQNYRLYLKGHTGTAGKQSSLILHGADFSTKDADNDNCMCKCALMLTGGWWFDACGPSNLNGMFYTAGQNHGKLNGIKWHYFKGPSYSLRSTTMMIRPLDF
In the case of B1, the “Activation of FAK” value in assay [4] is on record as “time dependently activated FAK”.
